This is an account of results in paper PMC6269887, “Novel Substituted Heteroaromatic Piperazine and Piperidine Derivatives as Inhibitors of Human Enterovirus 71 and Coxsackievirus A16” (Molecules, 2013).

For series [1], the system named is EV71. The series can be described thus: Neutralization test: inhibition of EV71-induced CPE on Vero cells. Type of series: cell-based, Enterovirus 71 (Shenzhen 98, shzh01-8). As to conditions: for IC50: CPE on Vero cells, 100 TCID50, Reed-Muench; for EV71 SI: selectivity index. Here is the method:
(§1) The anti-EV71 activity, anti-CVA16 activity, and cytotoxicity of the compounds on the EV71 test strain (Shenzhen 98, shzh01-8) and CVA16 (laboratory viral culture) were evaluated by using cell culture cytopathic effect assays.
(§2) This assay measured the ability of the test compounds to inhibit the CPE induced by EV71 and CVA16 on Vero cells. The 96-well tissue culture plates were seeded with 20,000 Vero cells/mL. The plates were incubated for 24 h at 37 °C. The virus (100 TCID50) mixed with different concentrations of the test compounds was added to the cells, which were incubated at 37 °C for 2 h. After adsorption, the infected cells were overlaid with 50 μL of Dulbecco’s modified Eagle’s medium with 5% fetal bovine serum, and 2% DMSO. […] All assays were performed in triplicate.

Series [2] deals with CVA16. The series can be described thus: Neutralization test: inhibition of CVA16-induced CPE on Vero cells. Type of series: cell-based, Coxsackievirus A16 (laboratory viral culture). The note with it: for IC50: CPE on Vero cells, 100 TCID50, Reed-Muench; for CVA16 SI: selectivity index. The protocol:
as §1, §2

Series [3] concerns Vero cells. As to the kind of experiment: Cytotoxicity assay on Vero cells. Type of series: cell-based. The note with it: for TC50: 96 h, concentration reducing cell viability to 50%. Here is the method: The Vero cells treated with the test compounds were incubated at 37 °C for 96 h. After incubation, the cells were harvested and counted.
In series [4] the test system is EV71. More on the design: method as in PMID 23519203. The note with it: pirodavir; cited from earlier work.
On the set-up of series [5]: method as in PMID 23519203. The note with it: pirodavir; cited from earlier work.

Structures are written as SMILES. Where “and” joins values, the source holds several entries; their conditions need not be identical. Identical values can stand only once. Like-named read-outs stand apart in the source and are kept apart here. A value given as a limit tells only on which side of the number the result lay.

One may read the IC50 as the concentration that gives 50% inhibition. `COc1ccc(OCCCCCN2CCN(c3nccs3)CC2)cc1` [Compound 8a, 2-(4-(5-(4-Methoxyphenoxy)pentyl)piperazin-1-yl)thiazole] yielded an IC50 in series [1] (Enterovirus A, EV71, Vero) of 100 ± 9 µM. In series [1], the “EV71 SI” value is recorded as 2.8. Moreover, the IC50 in series [2] (Enterovirus A, CVA16, Vero) stood at 69.2 ± 5.5 µM. Further, the “CVA16 SI” value in series [2] stood at 4.0. In series [3], this compound displayed a TC0 of 138 ± 9.6 µM and a TC50 of 277 ± 2.2 µM.

As usually defined, the melting point is the temperature, or range, at which the solid turns liquid. `CCOc1ccc(OCCCCCN2CCN(c3nccs3)CC2)cc1` [Compound 8b, 2-(4-(5-(4-Ethoxyphenoxy)pentyl)piperazin-1-yl)thiazole] came in with a melting point of 79 to 81 °C. This compound showed an IC50 in series [1] (Enterovirus A, EV71, Vero) of 21 ± 1.2 µM. For the same compound, in series [1], the “EV71 SI” value worked out at 3.2. Moreover, it took 5.3 ± 0.3 µM to reach half-maximal inhibition in series [2] (Enterovirus A, CVA16, Vero) (IC50). The “CVA16 SI” value in series [2] came out at 12.7. In series [3], the TC0 is 33.3 ± 3.9 µM and the TC50 turned out to be 66.6 ± 1.0 µM.

`CCOc1ccc(OCCCCCCN2CCN(c3nccs3)CC2)cc1.Cl` [Compound 8c, 2-(4-(6-(4-Ethoxyphenoxy)hexyl)piperazin-1-yl)thiazole hydrochloride] showed a melting point of 222 to 224 °C. For the same compound, in series [1] (Enterovirus A, EV71, Vero), it took 4.3 ± 0.1 µM to reach half-maximal inhibition (IC50). For the same compound, the “EV71 SI” value in series [1] stood at 12.7. 6.8 ± 0.4 µM corresponded to half-maximal inhibition in series [2] (Enterovirus A, CVA16, Vero) (IC50). Moreover, the “CVA16 SI” value in series [2] turned out to be 8.0. In addition, in series [3], the TC0 came out at 6.8 ± 0.1 µM and the TC50 worked out at 54.1 ± 8.1 µM.

Take `CCc1ccc(OCCCCCCN2CCN(c3nccs3)CC2)cc1.Cl` [Compound 8d, 2-(4-(6-(4-Ethylphenoxy)hexyl)piperazin-1-yl)thiazole hydrochloride]: the melting point is 240 to 242 °C. The same compound showed an IC50 in series [1] (Enterovirus A, EV71, Vero) of 4.4 ± 0.3 µM. The “EV71 SI” value in series [1] was 12.7. In addition, in series [2] (Enterovirus A, CVA16, Vero), half-maximal inhibition (IC50) was put at 14 ± 0.5 µM. Besides, in series [2], the “CVA16 SI” value amounted to 4.0. In series [3], the TC0 worked out at 28.0 ± 2.5 µM and the TC50 was 56.0 ± 3.3 µM.

Compound `CC(C)c1ccc(OCCCCCCN2CCN(c3nccs3)CC2)cc1.Cl` [Compound 8e, 2-(4-(6-(4-Isopropylphenoxy)hexyl)piperazin-1-yl)thiazole hydrochloride] yielded a melting point of 135 to 137 °C. Also, in series [1], the midpoint of inhibition, the IC50, lay at 4.3 µM and the “EV71 SI” value is given as 10.1. This compound also gave an IC50 in series [1] (Enterovirus A, EV71, Vero) of 4.28 µM. For the same compound, in series [2], the IC50 was 1.2 ± 0.5 µM and the “CVA16 SI” value is 34.8. Moreover, the IC50 in series [2] (Enterovirus A, CVA16, Vero) stood at 1.24 µM. Besides, in series [3], the TC0 is 6.8 ± 0.8 µM; the TC50 was 43.08 µM and 43.1 ± 4.7 µM.

With `CC(C)(C)c1ccc(OCCCCCCN2CCN(c3nccs3)CC2)cc1` [Compound 8f, 2-(4-(6-(4-tert-Butylphenoxy)hexyl)piperazin-1-yl)thiazole], the melting point is 30 to 32 °C. In series [1] (Enterovirus A, EV71, Vero), this compound gave an IC50 of 3.9 ± 0.1 µM. The “EV71 SI” value in series [1] is listed as 4.0. For the same compound, in series [2] (Enterovirus A, CVA16, Vero), half-maximal inhibition (IC50) required 7.8 ± 0.6 µM. In addition, in series [2], the “CVA16 SI” value came to 2.0. Also, in series [3], the TC0 was 7.8 ± 0.4 µM and the TC50 is 15.6 ± 0.3 µM.

`CCCCc1ccc(OCCN2CCN(c3cc(Cl)nnc3Cl)CC2)cc1` [Compound 9a] yielded an IC50 in series [1] (Enterovirus A, EV71, Vero) of 1.2 µM. For the same compound, the “EV71 SI” value in series [1] was 16.1. Also, half-maximal inhibition in series [2] (Enterovirus A, CVA16, Vero) (IC50) was put at 1.4 ± 0.1 µM. Further, in series [2], the “CVA16 SI” value is on record as 13.8. Besides, in series [3], the TC0 is 7.7 ± 0.3 µM and the TC50 came to 19.2 ± 0.7 µM.

On to `Clc1cc(N2CCN(CCOc3ccc(-n4cnnc4)cc3)CC2)c(Cl)nn1` [Compound 9b], for which the IC50 in series [1] (Enterovirus A, EV71, Vero) is 21.6 ± 1.4 µM; in series [2] it was more than 29.7 µM; in series [2] (Enterovirus A, CVA16, Vero) it was more than 29.7 µM. For the same compound, the “EV71 SI” value in series [1] is listed as 8.7. The TC0 in series [3] is 29.74 µM and 29.7 ± 2.2 µM. In series [3], this compound had a TC50 of 189 ± 17.3 µM.

The compound `CCOc1ccc(OCCN2CCN(c3cc(Cl)nnc3Cl)CC2)cc1` [Compound 9c] registered an IC50 in series [1] (Enterovirus A, EV71, Vero) of more than 31.5 µM. Further, the IC50 in series [2] (Enterovirus A, CVA16, Vero) is 10.8 ± 0.3 µM. The “CVA16 SI” value in series [2] is listed as 5.8. Moreover, in series [3], the TC0 turned out to be 31.5 ± 2.1 µM and the TC50 amounted to 62.9 ± 2.4 µM.

With `COC(=O)c1ccc(OCCC2CCN(c3cc(Cl)nnc3Cl)CC2)cc1` [Compound 9d], the IC50 in series [1] (Enterovirus A, EV71, Vero) was more than 31.5 µM; in series [2] (Enterovirus A, CVA16, Vero), 22.1 ± 1.1 µM. In series [2], the “CVA16 SI” value was determined as 8.7. In addition, in series [3], the TC0 is 30.5 ± 2.0 µM. The compound further came in with a TC50 in series [3] of 193 ± 19.3 µM.

With `CCOC(=O)c1ccc(OCCC2CCN(c3ccnnc3Cl)CC2)nc1` [Compound 9f], inhibition in series [1] (Enterovirus A, EV71, Vero) was half-maximal at 25.4 ± 1.7 µM (IC50). The “EV71 SI” value in series [1] is recorded as more than 20.2. In addition, the IC50 in series [2] (Enterovirus A, CVA16, Vero) worked out at 16 ± 0.9 µM. Moreover, the “CVA16 SI” value in series [2] is on record as more than 32.0. In addition, in series [3], the TC0 was 128 ± 9.5 µM and the TC50 was more than 512 µM.

As for `CCOC(=O)c1ccc(OCCC2CCN(c3ccc(C)nn3)CC2)cc1` [pirodavir], in series [4], the IC50 is 1.2 ± 0.2 µM and the SI is reported as 25. The TC50 in series [5] was 31 ± 2.2 µM.
